Square brackets hold non-standard residues; d marks the D form. Peptide text beside a SMILES is read from it. * marks the point of attachment. Sta = CC(C)C[C@H](N)[C@@H](O)CC(=O)O; Isovaleryl = CC(C)CC(=O)*
Tests used:
[1] = system: human plasma renin; assay: human plasma renin IC50 determination at pH 7.4; format: biochemical
Method: The following method was used for in vitro evaluation of the renin inhibitors of Formula I : The human plasma renin IC50 values for inhibitors of Formula I were determined at pH 7.4 following the procedure described in J. Boger, L.S. Payne, D.S. Perlow, N.S. Lohr, M. Poe, E.H. Blaine, E.H. Ulm, T.W. Schorn, B.I. Lamont, T.Y. Lin, M. Kawai, D.H. Rich and D.F. Veber, J. Med. Chem., 28,1779 (1985).

[2] = system: sodium-deficient Rhesus monkeys; assay: intravenous evaluation of renin inhibitors in conscious sodium-deficient Rhesus monkeys (blood pressure lowering); format: in vivo; settings: i.v. bolus
Text: The following methods were used for in vivo evaluation of the renin inhibitors of Formula I : Intravenous evaluation of renin inhibitors in concious sodium-deficient Rhesus monkeys : Rhesus monkeys, male and female, weighing 2.6-4.5 Kg, were surgically prepared with chronic arterial and venous catheters and vascular access ports for direct monitoring of mean arterial pressure (MAP) and heart rate (HR). The animals were maintained on a low sodium diet (1.2 mmol Nalday) plus friut for a week, and administered LASIX (furosemide) at 2.5 mg/Kg, intramuscularly the evening prior to the experiment The animals had been trained to sit quietly in the chairs with water ad libium for the duration of the experiment. The inhibitors were administered by bolus injection using 0.5% acetic acid-5% dextrose in water as the vehicle (0.4 ml/Kg), and MAP and HR were measured. Blood samples were withdrawn at different time intervals beginning at the nadir of hypotensive response. PRAwas determined as described above. […] A projected ED50 dose for each inhibitor was calculated using the following furmula : ED50 (Test Inhibitor, umoles/Kg) = ED50 (SCRIP) X [ICso (Test Inhibitor)/ICso (SCRIP)], where the IC50 values were determined against human plasma renin. […] Percent inhibition of monkey PRA, changes in MAP and HR were calculated and plotted against time. […]

In the case of `CC(C)CC(=O)N[C@@H](Cc1c[nH]cn1)C(=O)N1CCC[C@H]1C(=O)N[C@@H](Cc1ccccc1)C(=O)N[C@@H](Cc1c[nH]cn1)C(=O)N[C@@H](CC(C)C)[C@@H](O)CC(=O)N[C@@H](CC(C)C)C(=O)N[C@@H](Cc1ccccc1)C(N)=O` [SCRIP, Iva-His-Pro-Phe-His-Sta-Leu-Phe-NH2] (Isovaleryl-HPFH[Sta]LF-NH2), the IC50 [1] is reported as 3.7 nM and the “ED50 (i.v. dose required to lower blood pressure by 50% of the maximal response)” value [2] is reported as 0.039 µmol/kg.

Reference: patent EP0432974A1, “Cyclic renin inhibitors” (MERCK & CO. INC., priority 1989, dated 1991)
